In PubChem BioAssay (NCI):
“And” between values parts separate entries of the source, which are not always exact repeats. Identical values can stand only once.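 How tested: cells in 96-well plates exposed to compound for 48 hours at five concentrations. GI50 is the concentration that inhibits growth by half. TGI marks complete inhibition of growth.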

Experiments:
Assay in all cases: DTP human tumour cell line panel, 48 h
SF-268 CNS = test system: SF-268 CNS
HCC-2998 colon = test system: HCC-2998 colon
HCT-15 colon = test system: HCT-15 colon
MOLT-4 leukemia = test system: MOLT-4 leukemia
TK-10 renal = test system: TK-10 renal
U251 CNS = test system: U251 CNS
CAKI-1 renal = test system: CAKI-1 renal
SK-OV-3 ovarian = test system: SK-OV-3 ovarian
MDA-MB-435 = test system: MDA-MB-435
SR leukemia = test system: SR leukemia

SMILES	TGI (SF-268 CNS)	TGI (HCC-2998 colon) [µM]	TGI (HCT-15 colon)	TGI (MOLT-4 leukemia) [µM]	TGI (TK-10 renal) [µM]	TGI (U251 CNS) [µM]	TGI (CAKI-1 renal) [µM]	TGI (SK-OV-3 ovarian) [µM]	GI50 (SF-268 CNS) [µM]	GI50 (MDA-MB-435) [µM]	TGI (MDA-MB-435) [µM]	GI50 (HCC-2998 colon) [µM]	GI50 (HCT-15 colon) [µM]	GI50 (MOLT-4 leukemia) [µM]	GI50 (TK-10 renal) [µM]	GI50 (U251 CNS) [µM]	GI50 (CAKI-1 renal) [µM]	GI50 (SK-OV-3 ovarian) [µM]	TGI (SR leukemia) [µM]
Cc1cc(C)c2c(c1)Nc1ccccc1P2c1ccccc1 (centres undefined)	> 100 µM	60	> 100 µM	> 100	> 100	> 100	98.1	> 100	–	–	–	–	–	–	–	–	–	–	–
O=c1c(Sc2c(O)c3ccccc3c3ccccc3c2=O)c(O)c2ccccc2c2ccccc12	99 µM	> 100	> 100 µM	73.8	> 100	84	> 100	> 100	–	–	–	–	–	–	–	–	–	–	–
N#Cc1cccc(C(=O)Nc2cccc(NC(=O)c3cccc(C#N)c3)c2)c1	56 µM	> 100	> 100 µM	> 100	> 100	> 100	> 100	> 100	17	> 100	> 100	> 100	73.9	86.5	52.5	69.3	6.95	> 100	–
C=C1CC2(C[C@@H](c3ccccc3)O[C@@H](c3ccccc3)C2)OC1=O (some centres undefined)	23.6 µM	14.6	5.91 µM	5.61	3.89	28.9	4.53	27.8	–	–	7.48	–	–	–	–	–	–	–	–
CC(C)[C@@]12C[C@@H](OC(=O)COC(=O)/C=C/c3ccccc3)[C@@](C)(O1)[C@@H]1CC[C@@H](C)[C@H]1[C@@H]2OC(=O)/C=C/c1ccccc1	> 100 µM	> 100	> 100 µM	> 100	> 100	> 100	–	> 100	–	> 100	> 100	> 100	> 100	> 100	> 100	> 100	0.0813	> 100	–
CS(=O)(=O)OCCn1cnc2nc(NC(=O)c3ccccc3)[nH]c(=O)c21	> 100 µM	–	> 100 µM	–	> 100	> 100	> 100	> 100	–	–	–	–	–	–	–	–	–	–	> 100
O=C1OC(CC(=O)c2ccc(Cl)cc2Cl)C(Cl)=C1Cl (centres undefined)	62.7 µM	29.4	> 70.6 µM	66.7	> 79	> 72.8	> 70.3	> 63.4	–	–	–	–	–	–	–	–	–	–	70.4
Cc1ccc(NC(=O)c2cc3ccccc3c(N=Nc3ccccc3O)c2O)c(C)c1	10.5 µM	18.7	11.1 µM	10.1	24.5	–	11.4	16.7	–	–	–	–	–	–	–	–	–	–	3.53
CCOC(=O)C1=C(NNC(=O)Cc2ccccc2)CSC1=Nc1ccccc1	> 100 µM	> 100	> 100 µM	> 100	> 100	> 100	> 100	> 100	–	–	–	–	–	–	–	–	–	–	> 100
CCCCCCCCC(=O)N(C)C1C2CN3CCC(O2)C13 (centres undefined)	> 100 µM	> 100	> 100 µM	> 100	> 100	> 100	> 100	> 100	–	–	–	–	–	–	–	–	–	–	–
O=c1[nH]nc2ccccc2c1Cl	41.9 µM	7.27	25.3 µM	36.8	33	29.2	12	33.5	–	–	–	–	–	–	–	–	–	–	–
C=C1C(=O)OC2C1CC[C@H](C)C13OC(=O)CC1[C@@]23C (some centres undefined)	> 100 µM	> 100	–	> 100	> 100	> 100	> 100	> 100	–	–	–	–	–	–	–	–	–	–	> 100
Nc1c(Br)c(=O)[nH]c(=O)n1COCCO	> 100 µM	> 100	–	> 100	> 100	> 100	> 100	–	–	–	–	–	–	–	–	–	–	–	> 100
CCN(CCNc1ccc(C)c2sc3cc(Cl)ccc3c(=O)c12)CC(C)O (centres undefined)	16 µM	3.62	5.85 µM	3.49	2.91	4.24	2.49	3.44	3.29	1.64	3.27	2.18	2.33	1.62	1.51	1.94	0.643	1.76	–
c1cc(CCN2CCCCC2)ccn1	> 100 µM	–	> 100 µM	> 100	> 100	> 100	> 100	> 100	–	–	> 100	–	–	–	–	–	–	–	> 100
N#Cc1c(N)nc(N2CCOCC2)c(C#N)c1-c1ccc(Cl)cc1	> 100 µM	99.2	> 100 µM	> 100	–	> 100	97.1	> 100	61.7	65.3	> 100	21.7	26.9	43.7	–	38.3	26	47.2	–
CCCCCCCCCCC(O)[C@H]1CCC(C2CC[C@H]([C@H](O)CCCCCCCCCCC(O)CC3=CC(C)OC3=O)O2)O1 (some centres undefined)	3.67 µM and 8.61 µM	15	3.7 µM and 5.88 µM	3.69	–	> 100	–	15.7	1.11	–	–	–	1.23	–	4.05	3.58	4.09	–	9.23
COc1ccc(C2=NN(C(=O)COc3ccc(Cl)cc3)C(O)(c3ccc(Cl)cc3)C2)cc1 (centres undefined)	> 100 µM	> 100	> 100 µM	> 100	> 100	> 100	> 100	> 100	–	–	–	–	–	–	–	–	–	–	–
NNC(=O)CCC(=O)Nc1cc(Cl)c(Cl)cc1Cl	> 100 µM	> 100	> 100 µM	> 100	> 100	> 100	> 100	> 100	–	–	–	–	–	–	–	–	–	–	> 100
CC(=O)NCCSC(=O)c1ccccc1	2.02 µM	–	1.04 µM	0.0902	0.475	0.759	0.239	14.8	–	–	0.371	–	–	–	–	–	–	–	0.66
